The record followed here is ChEMBL document CHEMBL6177932 (J Med Chem, 2024).

Structures are written as SMILES. The source made the active and inactive calls. No cut-off for these calls is given here.

For data set [1], the system named is Mus musculus. Briefly: Immunomodulatory activity in mouse 4T1 cells implanted BALB/c mouse assessed as reduction in M2 macrophage infiltration into tumors at 1.5 to 5 mg/kg, ip administered daily for 18 days by arginase 1 staining based immunofluorescence microscopy. It is filed as functional, organism-based. The note with it: dose 1.5-5 mg/kg, time 18.0 day.

The target in data set [2] is T1, Protein deacetylase HDAC6 (Mus musculus) (UniProt Q9Z2V5).
T1 sequence (whole entry): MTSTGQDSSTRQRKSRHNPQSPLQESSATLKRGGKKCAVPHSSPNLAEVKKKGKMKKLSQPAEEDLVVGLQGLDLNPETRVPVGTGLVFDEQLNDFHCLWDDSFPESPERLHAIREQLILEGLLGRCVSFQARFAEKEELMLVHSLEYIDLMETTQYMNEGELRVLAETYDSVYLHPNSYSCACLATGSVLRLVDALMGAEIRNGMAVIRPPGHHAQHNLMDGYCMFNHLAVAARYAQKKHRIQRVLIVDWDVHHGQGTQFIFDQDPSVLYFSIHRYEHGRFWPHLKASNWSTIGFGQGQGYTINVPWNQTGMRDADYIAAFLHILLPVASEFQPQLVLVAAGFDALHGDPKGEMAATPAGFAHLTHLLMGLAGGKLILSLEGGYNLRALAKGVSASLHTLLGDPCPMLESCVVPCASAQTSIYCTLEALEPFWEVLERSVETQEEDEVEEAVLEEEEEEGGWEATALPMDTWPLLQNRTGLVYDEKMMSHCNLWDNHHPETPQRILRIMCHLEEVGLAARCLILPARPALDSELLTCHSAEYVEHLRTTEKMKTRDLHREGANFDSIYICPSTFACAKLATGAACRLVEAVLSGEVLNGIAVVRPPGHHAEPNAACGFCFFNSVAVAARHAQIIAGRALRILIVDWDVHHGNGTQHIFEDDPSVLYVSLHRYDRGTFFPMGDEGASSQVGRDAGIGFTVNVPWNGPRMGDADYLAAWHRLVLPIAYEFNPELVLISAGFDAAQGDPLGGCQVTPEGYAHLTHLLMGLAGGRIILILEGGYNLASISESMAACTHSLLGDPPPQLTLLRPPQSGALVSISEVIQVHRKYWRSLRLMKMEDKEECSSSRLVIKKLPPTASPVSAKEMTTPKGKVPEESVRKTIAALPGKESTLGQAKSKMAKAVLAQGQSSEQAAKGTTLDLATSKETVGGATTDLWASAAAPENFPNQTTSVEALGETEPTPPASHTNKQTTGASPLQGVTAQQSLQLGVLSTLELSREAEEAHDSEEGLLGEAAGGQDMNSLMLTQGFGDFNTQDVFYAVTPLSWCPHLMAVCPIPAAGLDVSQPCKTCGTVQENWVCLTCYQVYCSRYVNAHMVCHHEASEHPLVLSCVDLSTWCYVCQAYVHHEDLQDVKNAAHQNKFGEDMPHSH
Briefly: Inhibition of HDAC6 in mouse 4T1 cells assessed as induction of tubulin acetylation at 10 uM measured after 6 hrs by Western blot analysis. It is filed as cell-based.

Data set [3] in a line: Toxicity in 4T1 cells implanted BALB/c mouse assessed as body weight loss at 1.5 to 5 mg/kg, ip administered daily for 18 days. The note with it: in vivo, 432 h, dose 1.5-5 mg/kg, time 18 day. The class given is organism-based.
The nature of data set [4]: Toxicity in mouse B16-F10 cells implanted C57BL/6 mouse at 5 mg/kg, ip administered daily for 28 days. The class given is organism-based. The note with it: in vivo, time 28 day.
Data set [5] deals with 4T1. Briefly: Inhibition of class 1 HDAC in mouse 4T1 cells assessed as induction of H3K27 acetylation at 10 uM measured after 6 hrs by Western blot analysis. It is filed as cell-based. On the technique in general: Immunoblotting shows a protein as a band on a membrane.
Data set [6] deals with Mus musculus. As to the kind of experiment: Immunomodulatory activity in mouse 4T1 cells implanted BALB/c mouse assessed as reduction in Ccl5 gene expression at 1.5 to 5 mg/kg, ip administered daily for 18 days by RT-qPCR analysis. The note with it: dose 1.5-5 mg/kg, time 18.0 day. The class given is functional, organism-based.
Data set [7] concerns 4T1. Briefly: Inhibition of class 1 HDAC in mouse 4T1 cells assessed as induction of H3K9 acetylation at 10 uM measured after 6 hrs by Western blot analysis. The class given is cell-based.
For data set [8], the system named is B16-F10. As to the kind of experiment: Cytotoxicity against mouse B16-F10 cells assessed as reduction in cell viability at 0.01 to 100 uM measured after 24 hrs by RealTime-glo cell viability assay. It is filed as functional, cell-based. The note with it: dose 0.01-100 µM.
In data set [9] the test system is Mus musculus. As to the kind of experiment: Immunomodulatory activity in mouse 4T1 cells implanted BALB/c mouse assessed as reduction in Ccl2 gene expression at 1.5 to 5 mg/kg, ip administered daily for 18 days by RT-qPCR analysis. It is filed as functional, organism-based. The note with it: dose 1.5-5 mg/kg, time 18.0 day. (Real-time PCR tracks product formation cycle by cycle.)

Data set [10] relates to B16-F10. As to the kind of experiment: Inhibition of class 1 HDAC in mouse B16-F10 cells assessed as induction of H3K9 acetylation at 10 uM measured after 6 hrs by Western blot analysis. The class given is cell-based.
Data set [11] has as its system B16-F10. As to the kind of experiment: Inhibition of class 1 HDAC in mouse B16-F10 cells assessed as induction of H3K27 acetylation at 10 uM measured after 6 hrs by Western blot analysis. The class given is cell-based.
Data set [12] has as its target Histone deacetylase 9 (Homo sapiens) (UniProt Q9UKV0). As to the kind of experiment: Inhibition of human HDAC9 at 100 uM using Boc-Lys(trifluoroacetyl)-AMC as substrate by fluorogenic assay.
The target in data set [13] is T1, Protein deacetylase HDAC6 (Mus musculus). Briefly: Inhibition of HDAC6 in mouse B16-F10 cells assessed as induction of tubulin acetylation at 10 uM measured after 6 hrs by Western blot analysis. It is filed as cell-based.
For data set [14], the system named is 4TO7. Briefly: Inhibition of class 1 HDAC in mouse 4TO7 cells assessed as induction of H3K27 acetylation at 10 uM measured after 6 hrs by Western blot analysis. It is filed as cell-based.
In data set [15] the target is T1, Protein deacetylase HDAC6 (Mus musculus). Briefly: Inhibition of HDAC6 in mouse 4TO7 cells assessed as induction of tubulin acetylation at 10 uM measured after 6 hrs by Western blot analysis. The class given is cell-based.
Data set [16] concerns Mus musculus. Briefly: Immunomodulatory activity in mouse 4T1 cells implanted BALB/c mouse assessed as reduction in Ccl20 gene expression at 1.5 to 5 mg/kg, ip administered daily for 18 days by RT-qPCR analysis. It is filed as functional, organism-based. The note with it: dose 1.5-5 mg/kg, time 18.0 day.
The nature of data set [17]: Toxicity in mouse B16-F10 cells implanted C57BL/6 mouse assessed as effect on body weight at 5 mg/kg, ip administered daily for 28 days. It is filed as organism-based. The note with it: in vivo, time 28 day.
Data set [18] has as its system Mus musculus. Briefly: Immunomodulatory activity in mouse 4T1 cells implanted BALB/c mouse assessed as induction of Il1a gene expression at 1.5 to 5 mg/kg, ip administered daily for 18 days by RT-qPCR analysis. The class given is functional, organism-based. The note with it: dose 1.5-5 mg/kg, time 18.0 day.
Data set [19] concerns the target Vitamin D3 receptor (Mus musculus) (UniProt P48281). As to the kind of experiment: In vivo agonist activity at VDR in mouse B16-F10 cells implanted C57BL/6 mouse assessed as induction of VDR gene in tumor at 5 mg/kg, ip administered 2 times at 24 hrs interval by RT-qPCR analysis. The note with it: time 48.0 hrs.
Data set [20] concerns 4TO7. As to the kind of experiment: Inhibition of class 1 HDAC in mouse 4TO7 cells assessed as induction of H3K9 acetylation at 10 uM measured after 6 hrs by Western blot analysis. The class given is cell-based.

Sequence of Histone deacetylase 9 (Homo sapiens) (Q9UKV0 whole entry): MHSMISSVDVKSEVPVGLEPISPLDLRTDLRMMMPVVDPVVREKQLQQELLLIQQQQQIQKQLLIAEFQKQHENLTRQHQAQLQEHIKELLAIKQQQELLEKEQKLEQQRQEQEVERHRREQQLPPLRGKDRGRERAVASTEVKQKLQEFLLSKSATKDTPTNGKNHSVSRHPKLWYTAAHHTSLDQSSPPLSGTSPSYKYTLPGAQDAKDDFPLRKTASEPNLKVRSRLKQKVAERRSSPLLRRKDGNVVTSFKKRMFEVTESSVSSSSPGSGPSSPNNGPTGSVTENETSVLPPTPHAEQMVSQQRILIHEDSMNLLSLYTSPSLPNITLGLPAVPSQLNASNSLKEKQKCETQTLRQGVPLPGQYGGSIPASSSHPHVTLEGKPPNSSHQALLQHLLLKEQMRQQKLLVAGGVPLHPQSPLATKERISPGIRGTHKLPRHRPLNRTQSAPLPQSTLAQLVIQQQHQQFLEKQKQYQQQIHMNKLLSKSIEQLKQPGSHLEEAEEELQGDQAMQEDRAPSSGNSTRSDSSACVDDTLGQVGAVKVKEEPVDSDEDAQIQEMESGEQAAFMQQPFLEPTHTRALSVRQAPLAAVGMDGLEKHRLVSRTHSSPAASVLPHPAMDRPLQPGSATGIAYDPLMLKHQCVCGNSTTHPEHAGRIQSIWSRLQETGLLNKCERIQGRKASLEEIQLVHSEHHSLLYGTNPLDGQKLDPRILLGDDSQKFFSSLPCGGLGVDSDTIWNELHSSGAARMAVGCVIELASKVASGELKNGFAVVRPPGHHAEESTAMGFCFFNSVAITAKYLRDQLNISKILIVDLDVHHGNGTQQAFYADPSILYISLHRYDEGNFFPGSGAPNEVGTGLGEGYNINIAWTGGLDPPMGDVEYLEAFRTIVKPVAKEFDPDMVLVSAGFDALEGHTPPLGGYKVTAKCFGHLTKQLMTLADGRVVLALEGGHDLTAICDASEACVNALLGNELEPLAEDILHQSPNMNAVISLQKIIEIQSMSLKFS
Sequence of Vitamin D3 receptor (Mus musculus) (P48281 whole entry, looked up): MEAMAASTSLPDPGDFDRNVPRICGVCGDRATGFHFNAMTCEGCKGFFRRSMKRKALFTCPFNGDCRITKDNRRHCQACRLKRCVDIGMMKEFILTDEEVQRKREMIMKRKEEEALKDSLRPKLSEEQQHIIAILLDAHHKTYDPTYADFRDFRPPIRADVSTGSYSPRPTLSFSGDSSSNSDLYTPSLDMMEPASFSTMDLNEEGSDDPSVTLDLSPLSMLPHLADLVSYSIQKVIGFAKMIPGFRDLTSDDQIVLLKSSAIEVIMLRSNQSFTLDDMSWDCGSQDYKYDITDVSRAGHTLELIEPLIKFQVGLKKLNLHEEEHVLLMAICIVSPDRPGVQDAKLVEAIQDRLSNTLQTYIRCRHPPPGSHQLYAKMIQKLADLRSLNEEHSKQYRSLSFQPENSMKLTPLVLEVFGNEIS

On to `CCC(CC)(c1ccc(C(=O)NCCCCC(=O)NO)cc1)c1ccc(OCC(O)C(C)(C)C)c(C)n1` (stereo not given), for which the Activity entry with Mus musculus [1] is recorded as “Active; Compound Was Most Efficacious At Reducing The M2 Macrophages”; in [3], “Non-toxic”; in [4] it was “Non-toxic”; in [17], “Non-toxic”. Moreover, the inhibition result in [2] was “Active; Most Efficacious Than Saha”; in the data set on B16-F10 [10], “Active; Acetylation Was Comparable Or Greater Than Saha”; with B16-F10 [11] it was “Active; Acetylation Was Comparable Or Greater Than Saha”; in [12], “Not active; No Or Very Limited Inhibition Was Observed”; in [13], “Active; Acetylation Was Comparable Or Greater Than Saha”; in the data set on 4TO7 [14], “Active; Induced Higher Levels Of Acetylation Than Saha”. For the same compound, the inhibition entry (in data set [15]; in the data set on 4TO7 [20]) was “Active; Induced Higher Levels Of Acetylation Than Saha” throughout. Besides, the inhibition result in the data set on 4T1 [5] and in the data set on 4T1 [7] was “Active” in each case. Moreover, the result (in the data set with Mus musculus [6]; with B16-F10 [8]; with Mus musculus [9]; in the data set with Mus musculus [16]; with Mus musculus [18]; in data set [19]) was Active.
